Source: US12396936B2, “Antimicrobial composition for tackling malodour” (Conopco, Inc., priority 2020, dated 2025)

System: S. hominis ATCC 27844
Assay: Malodour assay using Lead acetate method (H2S blackening of lead acetate paper, ΔE by reflectometer)
Format: cell-based
Details: active wt % as printed per example; TSB with 0.1% L-cysteine-HCl, 37° C. overnight, triplicates; calculated from ΔE; control = 100
Description: The actives as shown in Table—1 below were subjected to malodour reduction assay as described below: • Malodour assay using Lead acetate method: Preparation of Bacterial Culture:
The test organisms was grown on TSA (Tryptic Soya Agar) plates overnight (22±2 hr). The organism was not more than 3 passages removed from the original source. The cell number was adjusted by re-suspending it in a suitable amount of physiological saline sufficient to achieve the required cell number based on optical density of the cells. The optical density (OD at 620 nm) of the cells were standardized to the cell number for the test organism using a spectrophotometer. A minimum final suspension of 1.0×10^8 CFU/mL was achieved by adjusting the OD to 0.2 in saline for the malodour assay.
A 1% Lead acetate solution was made in distilled water. […]
The malodour assay was adapted from the method of Moore et al, 2003 and modified into a 96 well plate format. […] The intensity of the colour was recorded using a reflectometer as L*a*b* values.
The difference between the initial and final L*a*b* values ΔE, was used to quantify malodour formation.) ΔE=√{square root over ((Li−Lf)^2+(ai−af)^2+(bi−bf)^2)}
The percentage malodour was calculated from ΔE measured using the above assay for the various actives or combinations.

CCCCCCc1ccc(O)cc1O [B, Hexyl resorcinol]
Malodour generation (%): 96%
